Results reported in patent US20260207621A1 (Vividion Therapeutics, Inc., priority 2022, published 2026).

Key:
KEAP1 C151 = target: T1, KEAP1 C151 (Homo sapiens, UniProt Q14145); test: Nrf2 TMT measurement: in vitro TE50 for KEAP1 C151 (IA-DTB competition, targeted TMT mass spectrometry) in MDA-MB-468 cell lysate; type: binding; conditions: in vitro target engagement of KEAP1 C151, targeted TMT, read-out: KEAP1_C151 TE50
T1 construct: treating 500 μg of cell lysate generated from MDA-MB-468 breast cancer cells with DMSO or compound; endogenous in cells; host or cells: MDA-MB-468 breast cancer cell lysate
Summary of the method: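 MDA-MB-468 lysate (500 μg) treated with compound for 1 h at room temperature, then 200 μM IA-DTB for 1 h. Labeled peptides streptavidin-enriched after trypsin digest, TMT-labeled and quantified by targeted MS3 on the KEAP1 C151 peptide. IC50 from dose-response curve fitting.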

Nrf2 = Nrf2 antagonism assay: ARE luciferase reporter in KYSE-70 cells; type: cell-based; conditions: positive Imax corresponds to Nrf2 antagonism; for KYSE70 Cellular ARE Luciferase Imax (%): KYSE-70 cells; for Emax: Homo sapiens, KYSE-70, KYSE-70 cells, read-out: KYSE70 Cellular ARE Luciferase Imax (%)
Summary of the method: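 KYSE-70 esophageal squamous carcinoma cells carrying Nrf2 W24C (constitutively Nrf2-high) with an ARE-driven luciferase reporter. Loss of luciferase signal reflects Nrf2 antagonism via KEAP1 C151 engagement. IC50 and Imax come from dose-response curves; positive Imax means antagonism.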

T1 sequence (Q14145 whole entry): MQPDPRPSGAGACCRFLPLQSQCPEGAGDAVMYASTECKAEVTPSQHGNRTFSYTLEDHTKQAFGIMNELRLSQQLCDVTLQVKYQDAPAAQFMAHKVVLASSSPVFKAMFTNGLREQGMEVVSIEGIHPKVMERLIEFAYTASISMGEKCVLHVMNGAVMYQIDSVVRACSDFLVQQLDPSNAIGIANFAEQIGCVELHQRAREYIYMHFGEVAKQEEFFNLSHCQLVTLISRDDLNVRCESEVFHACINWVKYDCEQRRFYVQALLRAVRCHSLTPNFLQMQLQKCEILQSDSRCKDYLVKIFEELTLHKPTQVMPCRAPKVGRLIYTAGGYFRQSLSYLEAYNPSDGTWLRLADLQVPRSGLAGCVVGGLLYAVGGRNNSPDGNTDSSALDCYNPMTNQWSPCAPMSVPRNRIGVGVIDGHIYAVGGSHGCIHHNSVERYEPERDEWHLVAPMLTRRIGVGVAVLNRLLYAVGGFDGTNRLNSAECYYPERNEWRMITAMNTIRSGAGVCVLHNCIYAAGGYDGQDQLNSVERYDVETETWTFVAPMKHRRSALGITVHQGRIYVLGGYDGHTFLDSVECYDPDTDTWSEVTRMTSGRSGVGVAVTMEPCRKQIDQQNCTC

SMILES | IC50 (KEAP1 C151) | KYSE70 Cellular ARE Luciferase Imax (%) (Nrf2) | Emax (Nrf2)
C=CC(=O)N1CCOC[C@H]1c1cc(Cl)cc(-c2nc(O)n[nH]2)c1 (single isomer, unassigned) [Compound 210] | 380 nM |  | 55%
C=CC(=O)N1CCOC[C@H]1c1cc(Cl)cc(C2CNC(=O)N(C)C2)c1 (single isomer, unassigned) [Compound 216] | 140 nM |  | 86%
C=CC(=O)N1CCOC[C@H]1c1cc(Cl)cc(C2CNC(=O)N(C)C2)c1 (single isomer, unassigned) [Compound 217] | 30 nM | 78% | 
C=CC(=O)N1CCOC[C@H]1c1cc(Cl)cc(-c2nc(N)nc(NC)n2)c1 (single isomer, unassigned) [Compound 218] | 16 nM |  | 92%
C=CC(=O)N1CCOC[C@H]1c1cc(Cl)cc(-c2ncnc(NCCCN(C)C)n2)c1 (single isomer, unassigned) [Compound 221] | 280 nM |  | 78%
C=CC(=O)N1CCOC[C@H]1c1cc(Cl)cc(C2CNC(=O)NC2)c1 (single isomer, unassigned) [Compound 222] | 330 nM |  | 85%
C=CC(=O)N1[C@H](c2cc(Cl)nc(-c3cc(C(N)=O)ncn3)c2)COC[C@H]1C(F)F (single isomer, unassigned) [Compound 223] | 3.5 nM |  | 94%
C=CC(=O)N1CCOC[C@H]1c1cc(Cl)cc(-c2nc(C(N)=O)co2)c1 (single isomer, unassigned) [Compound 224] | 170 nM |  | 90%
C=CC(=O)N1CCOC[C@H]1c1cc(Cl)cc(C2CNC(=S)N(C)C2)c1 (single isomer, unassigned) [Compound 226] | 200 nM |  | 85%
C=CC(=O)N1CCOC[C@H]1c1cc(Cl)cc(C2CNC(=S)N(C)C2)c1 (single isomer, unassigned) [Compound 227] | 95 nM | 90% | 
C=CC(=O)N1CCOC[C@H]1c1cc(Cl)cc(N2CCNC(=O)C2)c1 (single isomer, unassigned) [Compound 228] | 130 nM |  | 79%
C=CC(=O)N1CCOC[C@H]1c1cc(Cl)cc(-c2nc(N)nc(NCCCN(C)C)n2)c1 (single isomer, unassigned) [Compound 229] | 560 nM |  | 92%
C=CC(=O)N1CCOC[C@H]1c1cc(Cl)cc(N2CCC(N)C2=O)c1 (single isomer, unassigned) [Compound 230] | 820 nM |  | 51%
C=CC(=O)N1CCOC[C@H]1c1cc(Cl)cc(C2CNC(=O)CO2)c1 (single isomer, unassigned) [Compound 231] | 320 nM | 55% | 
C=CC(=O)N1CCOC[C@H]1c1cc(Cl)cc(C2CNC(=O)CO2)c1 (single isomer, unassigned) [Compound 232] | 140 nM | 84% | 
C=CC(=O)N1CCOC[C@H]1c1cc(Cl)cc(C2CNC(=S)NC2)c1 (single isomer, unassigned) [Compound 233] | 660 nM |  | 83%
C=CC(=O)N1CCOC[C@H]1c1cc(Cl)cc(C2CNC(=S)CO2)c1 (single isomer, unassigned) [Compound 240] | 150 nM | 61% | 
C=CC(=O)N1CCOC[C@H]1c1cc(Cl)cc(C2CNC(=S)CO2)c1 (single isomer, unassigned) [Compound 241] | 170 nM | 87% | 
C=CC(=O)N1CCOC[C@H]1c1cc(Cl)cc(C2CCNC(=O)N2)c1 (single isomer, unassigned) [Compound 242] | 250 nM |  | 59%

Second part, led by results:

IC50 (KEAP1 C151) | SMILES | KYSE70 Cellular ARE Luciferase Imax (%) (Nrf2) | Emax (Nrf2)
520 nM | C=CC(=O)N1CCS(=O)(=O)CC1c1cc(Cl)cc(-c2ncnc(N)n2)c1 (single isomer, unassigned) [Compound 206, 1-(3-(3-(4-amino-1,3,5-triazin-2-yl)-5-chlorophenyl)-1,1-dioxidothiomorpholino)prop-2-en-1-one] | 55% | 
45 nM | C=CC(=O)N1CCS(=O)(=O)CC1c1cc(Cl)cc(-c2ncc(N)cn2)c1 (single isomer, unassigned) [Compound 207, 1-(3-(3-(5-aminopyrimidin-2-yl)-5-chlorophenyl)-1,1-dioxidothiomorpholino)prop-2-en-1-one] |  | 90%
82 nM | C=CC(=O)N1CCS(=O)(=O)CC1c1cc(Cl)cc(-c2nccc(N)n2)c1 (single isomer, unassigned) [Compound 209, 1-(3-(3-(4-aminopyrimidin-2-yl)-5-chlorophenyl)-1,1-dioxidothiomorpholino)prop-2-en-1-one] |  | 93%
85 nM | C=CC(=O)N1CCOC[C@H]1c1cc(Cl)cc(-n2cc(N)cn2)c1 (single isomer, unassigned) [Compound 211] |  | 57%
69 nM | C=CC(=O)N1CCOC[C@H]1c1cc(Cl)cc(-c2cc(N)on2)c1 (single isomer, unassigned) [Compound 212] |  | 90%
470 nM | C=CC(=O)N1CCOC[C@H]1c1cc(Cl)cc(-c2cnc(=O)n(C)c2)c1 (single isomer, unassigned) [Compound 213] |  | 75%
100 nM | C=CC(=O)N1CCOC[C@H]1c1cc(Cl)cc(-c2ncnc(NC)n2)c1 (single isomer, unassigned) [Compound 214] |  | 93%
49 nM | C=CC(=O)N1CCOC[C@H]1c1cc(Cl)cc(-c2ncc(C(N)=O)o2)c1 (single isomer, unassigned) [Compound 220] |  | 73%
220 nM | C=CC(=O)N1CCOC[C@H]1c1cc(Cl)cc(-c2cnc(N)o2)c1 (single isomer, unassigned) [Compound 234] |  | 89%
110 nM | C=CC(=O)N1CCOC[C@H]1c1cc(Cl)cc(-c2cc(N)[nH]n2)c1 (single isomer, unassigned) [Compound 235] |  | 86%
25 nM | C=CC(=O)N1C[C@@H](C)N(C(C)=O)C[C@@H]1c1cc(Cl)cc(-c2ncc(N)cn2)c1 (single isomer, unassigned) [Compound 236] | 87% | 
140 nM | C=CC(=O)N1C[C@@H](C)N(C(C)=O)C[C@@H]1c1cc(Cl)cc(-c2ncc(N)cn2)c1 (single isomer, unassigned) [Compound 237] | 50% | 
34 nM | C=CC(=O)N1CC(F)(F)CCC1c1cc(Cl)cc(-c2ncc(N)cn2)c1 (single isomer, unassigned) [Compound 238, 1-(2-(3-(5-aminopyrimidin-2-yl)-5-chlorophenyl)-5,5-difluoropiperidin-1-yl)prop-2-en-1-one] |  | 82%
220 nM | C=CC(=O)N1CCCCC1c1cc(Cl)cc(-c2ncc(N)cn2)c1 (single isomer, unassigned) [Compound 239, 1-(2-(3-(5-aminopyrimidin-2-yl)-5-chlorophenyl)piperidin-1-yl)prop-2-en-1-one] |  | 83%
22 nM | C=CC(=O)N1C[C@@H](C)N(C(=O)C2CC2)C[C@@H]1c1cc(Cl)cc(-c2ncc(N)cn2)c1 (single isomer, unassigned) [Compound 243] |  | 88%
